Experimental data as given in patent US9340559B2, “Proteasome inhibitor delanzomib for use in the treatment of lupus” (Cephalon, Inc., priority 2011, dated 2016).

How the values were obtained:
[1] = system: MRL/lpr mice; test: Splenomegaly (spleen mass), MRL/lpr mice; type: in vivo, mouse
Method: FIG. 5 depicts splenomegaly for MRL/lpr mice across treatment groups for the study duration. MRL/lpr mice were treated as outlined in the legend. The spleen masses for all mice that survived until the end of the experiment are graphed. Each symbol represents the spleen weight for one mouse at 25 weeks of age.
(§1) Mice are tracked on an individual basis.
(§2) Vehicle alone is provided orally twice weekly (p.o.). Both proteasome inhibitors are suspended in the vehicle solution. […] In addition, urine proteinuria is determined for all animals.
(§3) Vehicle was 3% DMSO/10% Solutol/87% PBS.

[2] = system: MRL/lpr mice; test: Antibody secreting B-cell Elispot (anti-Smith Ag, anti-dsDNA, anti-chromatin ASC), spleens of MRL/lpr mice; type: in vivo, mouse
Method: (§4) FIG. 9 depicts frequency of anti-Smith antigen and anti-dsDNA antibody secreting cells in the spleens of MRL/lpr mice. MRL/lpr treated mice spleens were processed for splenocytes for ex vivo Elispot assays. Elispot wells were coated with 10 μg/mL of smith antigen, dsDNA or ovalbumin protein. Fresh, whole splenocytes were added to each well at 500,000 cells per well in cell culture medium. Cells were incubated overnight at 37° C. Developed wells provided spots that were counted as frequency of ASCs per million splenocytes.
as §4, with “10” for “9”, “depicts the” for “depicts”, “anti-chromatin” for “anti-Smith antigen and anti-dsDNA”, “boiled chicken chromatin” for “smith antigen, dsDNA”, “[…]” for “500,000”
B-cell Elispot components are ordered from MabTech (Nacka Strand, Sweden) and nitrocellulose IP filter plates are ordered from Millipore (Billerica, Mass.). Elispot wells are coated with either purified bovine thymus dsDNA (Sigma), purified bovine Smith antigen (GenWay) or boiled filtered purified chicken chromatin from lysed chicken red blood cells (Rockland, Gilbertsville, Pa.) at 10 μg/mL. Spleens are processed using glass homogenization, filtered through a 60 μm sterile cell strainer and red blood cells (RBCs) lysed using BioLegend (San Diego, Calif.) lysis buffer. Processed splenocytes are added to each well in culture medium. To avoid skewing of true ex vivo frequencies of antibody secreting cell types (ASCs), cells are not stimulated with a polyclonal mitogen like LPS, but rather incubated in media alone to allow monitoring of genuine ex vivo antibody release. Anti-mouse pan-IgG is used as a positive control for total IgG producing ASCs and is used to normalize results. Frequencies for each antigen are identified in an initial test phase for each model. For chromatin and total IgG only, 30,000 splenocytes are added to each well; for Smith antigen and dsDNA, 500,000 cells are added to each well. Different numbers of splenocytes are added for different antigens due to saturation limits of spot frequencies per well. These limits are previously established. B-cell Elispots are incubated overnight at 37° C. To develop each assay, secondary antibody is added to each well, incubated, washed and alkaline phosphatase strepavidin is used as the conjugate; substrate used is BCIP-NBT. Plates are developed until spots are visible. All Elispot analyses are performed using an Immunospot C.T.L. scanner and Biospot software (Cellular Technology Ltd., Shaker Heights, Ohio). Results are shown as values from which media and cells only wells are subtracted. Some values are negative due to high background.

[3] = system: MRL/lpr mice; test: Luminex analysis of serum cytokines (IL-12p40/p70, IL-1β, TNFα), MRL/lpr mice; type: in vivo, mouse
Method: For the processing of serum samples for cytokine analysis, frozen plasma at −80° C. is thawed on ice, vortexed, and centrifuged for 10 minutes to remove debris and aggregates. A total of 25-50 μL of serum is used for Luminex® assays following the manufacturer's instructions. Ten different mouse cytokines are measured using the mouse cytokine 10-plex bead kit (Invitrogen, Carlsbad, Calif., no. LMC0001). Briefly, filter plates (Millipore, Billerica, Mass., no. MAIPSWU10), are pre-wet with 200 μL of wash solution (kit component) and 25 μL of beads are added per well. Serum samples are diluted and a total volume of 50 μL is added per well (ie, 25 μL of sample serum plus 25 μL of assay diluent as provided by the manufacturer). Plates with beads are incubated for 2 hours at room temperature (RT) on an orbital shaker in the dark. At the end of the incubation, plate(s) are washed twice in kit buffer, secondary biotinylated antibody is added at a 1:10 dilution (100 μL) in biotin diluent provided with the kit. Plates are incubated at RT for 1 hour in the dark then washed twice in kit buffer. Strepavidin in assay diluent is added at 100 μL per well, then incubated for 30 minutes at RT in the dark. The plates are washed 3 times then 100 μL of kit wash solution is added and agitated for 2-3 minutes at RT in the dark. Plates are run immediately following this incubation period on a Luminex xMAP 200 unit with data acquisition and analysis software (Invitrogen, San Diego, Calif., no. MAP0200). All bead washing is performed using a vacuum manifold unit (Pall, Ann Arbor, Mich. no. 5017). For all cytokine Luminex assays, values below the limit of detection set by the lowest point along the standard or set by the manufacturer are considered out of range and are not estimated, but assumed the lowest point along the standard curve for that particular assay.
as §1, §2, §3

[4] = system: MRL/lpr mice; test: Spleen plasma cells by flow cytometry, MRL/lpr mice
[5] = system: NZM mice; test: Splenomegaly (spleen mass), NZM mice (Example 2); type: in vivo, mouse
[6] = system: MRL/lpr mice; test: Lymphomegaly (enlarged lymph nodes), MRL/lpr mice; type: in vivo, mouse; details: for lymphomegaly decrease compared to vehicle: iv
Method: FIG. 4 depicts lymphomegaly for MRL/lpr mice across treatment groups for the study duration. MRL/lpr mice were treated as outlined in the legend. Lymphomegaly or presence of enlarged lymph nodes were observed weekly and noted.
as §1, §2, §3

CC(C)C[C@H](NC(=O)[C@H](Cc1ccccc1)NC(=O)c1cnccn1)B(O)O [bortezomib, reference compound]
EOS spleen mass, percent change vs vehicle ([1]; G4: 0.5 mg/kg iv, 1× wk): −68% | EOS spleen mass, percent change vs vehicle ([1]; G5: 0.3 mg/kg iv, 2× wk): −44% | ASC EOS Smith Ag, percent change vs vehicle ([2]; G4: 0.5 mg/kg iv, 1× wk): −74% | ASC EOS chromatin, percent change vs vehicle ([2]; G4: 0.5 mg/kg iv, 1× wk): −64% | ASC EOS dsDNA, percent change vs vehicle ([2]; G4: 0.5 mg/kg iv, 1× wk): −58% | ASC EOS Smith Ag, percent change vs vehicle ([2]; G5: 0.3 mg/kg iv, 2× wk): +73% | ASC EOS chromatin, percent change vs vehicle ([2]; G5: 0.3 mg/kg iv, 2× wk): +5% | ASC EOS dsDNA, percent change vs vehicle ([2]; G5: 0.3 mg/kg iv, 2× wk): +219% | Cytokine AUC serum IL-1β, percent change vs vehicle ([3]; G4: 0.5 mg/kg iv, 1× wk): −46% | Cytokine AUC serum IL-12, percent change vs vehicle ([3]; G4: 0.5 mg/kg iv, 1× wk): −54% | Cytokine AUC serum TNFα, percent change vs vehicle ([3]; G4: 0.5 mg/kg iv, 1× wk): −64% | Cytokine AUC serum IL-1β, percent change vs vehicle ([3]; G5: 0.3 mg/kg iv, 2× wk): −51% | Cytokine AUC serum IL-12, percent change vs vehicle ([3]; G5: 0.3 mg/kg iv, 2× wk): −54% | Cytokine AUC serum TNFα, percent change vs vehicle ([3]; G5: 0.3 mg/kg iv, 2× wk): −71% | EOS plasma cells, percent change vs vehicle ([4]; G4: 0.5 mg/kg iv, 1× wk): −67% | EOS plasma cells, percent change vs vehicle ([4]; G5: 0.3 mg/kg iv, 2× wk): −33% | spleen plasma cells decrease vs vehicle ([4]; Group 4): 66% | spleen plasma cells decrease vs vehicle ([4]; Group 5): 33% | Spleen mass EOS, percent change vs vehicle ([5]; G3 0.3 mg/kg ip, 1× wk): +14% | Spleen mass EOS, percent change vs vehicle ([5]; G4 0.3 mg/kg ip, 2× wk): −19% | AUC lymphomegaly, percent of non enlarged lymph nodes relative to vehicle ([6]; G4: 0.5 mg/kg iv, 1× wk): 13% | AUC lymphomegaly, percent of non enlarged lymph nodes relative to vehicle ([6]; G5: 0.3 mg/kg iv, 2× wk): 21% | effect on lymphomegaly ([6]; bortezomib treatment groups): did not significantly reduce lymphomegaly

C[C@@H]1C[C@H]2[C@@H]3CCC4=CC(=O)C=C[C@]4(C)[C@@]3(F)[C@@H](O)C[C@]2(C)[C@@]1(O)C(=O)CO [dexamethasone, Dexamethasone, reference compound]
EOS spleen mass, percent change vs vehicle ([1]; G6: 1.5 mg/kg ip, 3× wk): −71% | ASC EOS Smith Ag, percent change vs vehicle ([2]; G6: 1.5 mg/kg ip, 3× wk): +40% | ASC EOS chromatin, percent change vs vehicle ([2]; G6: 1.5 mg/kg ip, 3× wk): −22% | ASC EOS dsDNA, percent change vs vehicle ([2]; G6: 1.5 mg/kg ip, 3× wk): +129% | Cytokine AUC serum IL-1β, percent change vs vehicle ([3]; G6: 1.5 mg/kg ip, 3× wk): −44% | Cytokine AUC serum IL-12, percent change vs vehicle ([3]; G6: 1.5 mg/kg ip, 3× wk): −74% | Cytokine AUC serum TNFα, percent change vs vehicle ([3]; G6: 1.5 mg/kg ip, 3× wk): −87% | EOS plasma cells, percent change vs vehicle ([4]; G6: 1.5 mg/kg ip, 3× wk): +25% | Spleen mass EOS, percent change vs vehicle ([5]; G5 1.5 mg/kg ip, 3× wk): −59% | AUC lymphomegaly, percent of non enlarged lymph nodes relative to vehicle ([6]; G6: 1.5 mg/kg ip, 3× wk): 22%

CC(C)C[C@H](NC(=O)[C@@H](NC(=O)c1cccc(-c2ccccc2)n1)[C@@H](C)O)B(O)O [COMPOUND A, [(1R)-1-[[(2S,3R)-3-hydroxy-2-[6-phenyl-pyridine-2-carbonyl)amino]-1-oxobutyl]amino]-3-methylbutylboronic acid]
splenomegaly decrease vs vehicle at the end of the study ([1]; 3 mg/kg iv twice weekly): 74% | EOS spleen mass, percent change vs vehicle ([1]; G1: 3 mg/kg iv, 1× wk): −67% | EOS spleen mass, percent change vs vehicle ([1]; G2: 3 mg/kg iv, 2× wk): −74% | EOS spleen mass, percent change vs vehicle ([1]; G3: 10 mg/kg po, 2× wk): −56% | ASC EOS Smith Ag, percent change vs vehicle ([2]; G1: 3 mg/kg iv, 1× wk): −97% | ASC EOS chromatin, percent change vs vehicle ([2]; G1: 3 mg/kg iv, 1× wk): −89% | ASC EOS dsDNA, percent change vs vehicle ([2]; G1: 3 mg/kg iv, 1× wk): −80% | ASC EOS Smith Ag, percent change vs vehicle ([2]; G2: 3 mg/kg iv, 2× wk): −110% | ASC EOS chromatin, percent change vs vehicle ([2]; G2: 3 mg/kg iv, 2× wk): −98% | ASC EOS dsDNA, percent change vs vehicle ([2]; G2: 3 mg/kg iv, 2× wk): −84% | ASC EOS Smith Ag, percent change vs vehicle ([2]; G3: 10 mg/kg po, 2× wk): −86% | ASC EOS chromatin, percent change vs vehicle ([2]; G3: 10 mg/kg po, 2× wk): −79% | ASC EOS dsDNA, percent change vs vehicle ([2]; G3: 10 mg/kg po, 2× wk): −82% | anti-Smith Ag IgG ASC frequency decrease vs vehicle ([2]; Group 1): 97% | anti-dsDNA IgG ASC frequency decrease vs vehicle ([2]; Group 1): 80% | anti-Smith Ag IgG ASC frequency decrease vs vehicle ([2]; Group 2): 100% | anti-dsDNA IgG ASC frequency decrease vs vehicle ([2]; Group 2): 84% | anti-Smith Ag IgG ASC frequency decrease vs vehicle ([2]; Group 3): 86% | anti-dsDNA IgG ASC frequency decrease vs vehicle ([2]; Group 3): 82% | serum IL-1β by EOS ([3]; 3 mg/kg twice weekly, vehicle 16.8 pg/mL): 5.7 pg/mL | Cytokine AUC serum IL-1β, percent change vs vehicle ([3]; G1: 3 mg/kg iv, 1× wk): −56% | Cytokine AUC serum IL-12, percent change vs vehicle ([3]; G1: 3 mg/kg iv, 1× wk): −48% | Cytokine AUC serum TNFα, percent change vs vehicle ([3]; G1: 3 mg/kg iv, 1× wk): −62% | Cytokine AUC serum IL-1β, percent change vs vehicle ([3]; G2: 3 mg/kg iv, 2× wk): −61% | Cytokine AUC serum IL-12, percent change vs vehicle ([3]; G2: 3 mg/kg iv, 2× wk): −72% | Cytokine AUC serum TNFα, percent change vs vehicle ([3]; G2: 3 mg/kg iv, 2× wk): −79% | Cytokine AUC serum IL-1β, percent change vs vehicle ([3]; G3: 10 mg/kg po, 2× wk): −58% | Cytokine AUC serum IL-12, percent change vs vehicle ([3]; G3: 10 mg/kg po, 2× wk): −62% | Cytokine AUC serum TNFα, percent change vs vehicle ([3]; G3: 10 mg/kg po, 2× wk): −71% | EOS plasma cells, percent change vs vehicle ([4]; G1: 3 mg/kg iv, 1× wk): −67% | EOS plasma cells, percent change vs vehicle ([4]; G2: 3 mg/kg iv, 2× wk): −67% | EOS plasma cells, percent change vs vehicle ([4]; G3: 10 mg/kg po, 2× wk): −67% | spleen plasma cells decrease vs vehicle ([4]; Groups 1-3 (each)): 67% | Spleen mass EOS, percent change vs vehicle ([5]; G1 3 mg/kg ip, 1× wk): −37% | splenomegaly decrease vs vehicle at EOS ([5]; G1: 3 mg/kg ip once per week): 37% | Spleen mass EOS, percent change vs vehicle ([5]; G2 3 mg/kg ip, 2× wk): −34% | splenomegaly decrease vs vehicle at EOS ([5]; G2: 3 mg/kg ip twice weekly): 34% | spleen mass compared to once-a-week bortezomib ([5]; p<0.05): reduced spleen mass significantly | AUC lymphomegaly, percent of non enlarged lymph nodes relative to vehicle ([6]; G1: 3 mg/kg iv, 1× wk): 71% | AUC lymphomegaly, percent of non enlarged lymph nodes relative to vehicle ([6]; G2: 3 mg/kg iv, 2× wk): 34% | AUC lymphomegaly, percent of non enlarged lymph nodes relative to vehicle ([6]; G3: 10 mg/kg po, 2× wk): 9% | lymphomegaly decrease compared to vehicle ([6]; first value (G1: 3 mg/kg 1× wk)): 71% | lymphomegaly decrease compared to vehicle ([6]; second value (G2: 3 mg/kg 2× wk)): 34%
